Measured values as given in the supplement of paper PMC10307832.

Tests used:
Assay in all cases: relative viability (nuclei count vs DMSO), 5 days (fraction); higher = more cells survive
[1] = compound: CC[C@H](Nc1ncnc2[nH]cnc12)c1nc2cccc(F)c2c(=O)n1-c1ccccc1 [Idelalisib] + COc1cccc2cc(-c3nc([C@H]4CC[C@H](C(=O)O)CC4)n4ncnc(N)c34)[nH]c12 [OSI-027] (partner 0.5 µM)
Method in brief: (§1)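 One day after seeding in 1536-well plates, lung cancer cell lines were dosed by pin tool. Dosing was either single-drug or a fixed anchor-drug dose plus five library-drug doses (not always all listed) in √10 steps. After 5 days, nuclei were stained in one fix-and-stain step and counted on 4× images, and relative viability is the nuclei count of treated wells over that of vehicle wells, given as the median of duplicate plates.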

[2] = compound: CC[C@H](Nc1ncnc2[nH]cnc12)c1nc2cccc(F)c2c(=O)n1-c1ccccc1 [Idelalisib] + C[C@]1(O)C[C@@H](c2nc(-c3ccc4ccc(-c5ccccc5)nc4c3)c3c(N)nccn32)C1 [Linsitinib] (partner 1 µM)
Method in brief: as §1

[3] = compound: Nc1nc2[nH]cc(CCc3ccc(C(=O)N[C@@H](CCC(=O)O)C(=O)O)cc3)c2c(=O)[nH]1 [Pemetrexed] + C[C@@H](Oc1cc(-c2cnn(C3CCNCC3)c2)cnc1N)c1c(Cl)ccc(F)c1Cl [Crizotinib] (partner 1 µM)
Method in brief: as §1

[4] = compound: Nc1nc2[nH]cc(CCc3ccc(C(=O)N[C@@H](CCC(=O)O)C(=O)O)cc3)c2c(=O)[nH]1 [Pemetrexed] + CC(=O)c1c(C)c2cnc(Nc3ccc(N4CCNCC4)cn3)nc2n(C2CCCC2)c1=O [Palbociclib] (partner 0.5 µM)
Method in brief: as §1

NCI-H596
relative viability ([1]; first compound 0.04 µM): 0.859
relative viability ([1]; first compound 0.1265 µM): 0.746
relative viability ([1]; first compound 0.4 µM): 0.666
relative viability ([1]; first compound 1.265 µM): 0.65
relative viability ([1]; first compound 4 µM): 0.551
relative viability ([2]; first compound 0.04 µM): 1.07
relative viability ([2]; first compound 0.1265 µM): 1.06
relative viability ([2]; first compound 0.4 µM): 0.899
relative viability ([2]; first compound 1.265 µM): 1.19
relative viability ([2]; first compound 4 µM): 1.03
relative viability ([3]; first compound 0.002 µM): 0.854
relative viability ([3]; first compound 0.006325 µM): 0.967
relative viability ([3]; first compound 0.02 µM): 1.09
relative viability ([3]; first compound 0.06325 µM): 0.78
relative viability ([3]; first compound 0.2 µM): 0.665

NCI-H1299
relative viability ([2]; first compound 0.04 µM): 1.03
relative viability ([2]; first compound 0.1265 µM): 1.07
relative viability ([2]; first compound 0.4 µM): 0.978
relative viability ([2]; first compound 1.265 µM): 0.959
relative viability ([2]; first compound 4 µM): 0.928
relative viability ([3]; first compound 0.002 µM): 0.962
relative viability ([3]; first compound 0.006325 µM): 0.942
relative viability ([3]; first compound 0.02 µM): 0.98
relative viability ([3]; first compound 0.06325 µM): 0.881
relative viability ([3]; first compound 0.2 µM): 0.927

NCI-H1395
relative viability ([1]; first compound 0.04 µM): 0.713
relative viability ([1]; first compound 0.1265 µM): 0.639
relative viability ([1]; first compound 0.4 µM): 0.621
relative viability ([1]; first compound 1.265 µM): 0.561
relative viability ([1]; first compound 4 µM): 0.454
relative viability ([2]; first compound 0.04 µM): 1.15
relative viability ([2]; first compound 0.1265 µM): 1.22
relative viability ([2]; first compound 0.4 µM): 0.92
relative viability ([2]; first compound 1.265 µM): 0.82
relative viability ([2]; first compound 4 µM): 0.77
relative viability ([4]; first compound 0.002 µM): 0.61
relative viability ([4]; first compound 0.006325 µM): 0.599
relative viability ([4]; first compound 0.02 µM): 0.675
relative viability ([4]; first compound 0.06325 µM): 0.625
relative viability ([4]; first compound 0.2 µM): 0.599

NCI-H1563
relative viability ([1]; first compound 0.04 µM): 0.766
relative viability ([1]; first compound 0.1265 µM): 0.757
relative viability ([1]; first compound 0.4 µM): 0.703
relative viability ([1]; first compound 1.265 µM): 0.767
relative viability ([1]; first compound 4 µM): 0.701
relative viability ([2]; first compound 0.04 µM): 1.16
relative viability ([2]; first compound 0.1265 µM): 1.29
relative viability ([2]; first compound 0.4 µM): 1.07
relative viability ([2]; first compound 1.265 µM): 1.15
relative viability ([2]; first compound 4 µM): 0.832
relative viability ([3]; first compound 0.002 µM): 0.946
relative viability ([3]; first compound 0.006325 µM): 0.837
relative viability ([3]; first compound 0.02 µM): 0.878
relative viability ([3]; first compound 0.06325 µM): 0.911
relative viability ([3]; first compound 0.2 µM): 0.938

NCI-H1623
relative viability ([1]; first compound 0.04 µM): 0.409
relative viability ([1]; first compound 0.1265 µM): 0.463
relative viability ([1]; first compound 0.4 µM): 0.45
relative viability ([1]; first compound 1.265 µM): 0.402
relative viability ([1]; first compound 4 µM): 0.386

NCI-H1648
relative viability ([1]; first compound 0.04 µM): 0.272
relative viability ([1]; first compound 0.1265 µM): 0.368
relative viability ([1]; first compound 0.4 µM): 0.261
relative viability ([1]; first compound 1.265 µM): 0.285
relative viability ([1]; first compound 4 µM): 0.26
relative viability ([4]; first compound 0.002 µM): 0.255
relative viability ([4]; first compound 0.006325 µM): 0.24
relative viability ([4]; first compound 0.02 µM): 0.24
relative viability ([4]; first compound 0.06325 µM): 0.282
relative viability ([4]; first compound 0.2 µM): 0.302

NCI-H1650
relative viability ([1]; first compound 0.04 µM): 0.641
relative viability ([1]; first compound 0.1265 µM): 0.602
relative viability ([1]; first compound 0.4 µM): 0.478
relative viability ([1]; first compound 1.265 µM): 0.578
relative viability ([1]; first compound 4 µM): 0.536
relative viability ([4]; first compound 0.002 µM): 0.284
relative viability ([4]; first compound 0.006325 µM): 0.299
relative viability ([4]; first compound 0.02 µM): 0.381
relative viability ([4]; first compound 0.06325 µM): 0.247
relative viability ([4]; first compound 0.2 µM): 0.245
relative viability ([3]; first compound 0.002 µM): 0.971
relative viability ([3]; first compound 0.006325 µM): 0.902
relative viability ([3]; first compound 0.02 µM): 0.939
relative viability ([3]; first compound 0.06325 µM): 0.689
relative viability ([3]; first compound 0.2 µM): 0.332

NCI-H1703
relative viability ([2]; first compound 0.04 µM): 1.31
relative viability ([2]; first compound 0.1265 µM): 0.976
relative viability ([2]; first compound 0.4 µM): 0.669
relative viability ([2]; first compound 1.265 µM): 1.2
relative viability ([2]; first compound 4 µM): 0.474
relative viability ([3]; first compound 0.002 µM): 0.687
relative viability ([3]; first compound 0.006325 µM): 0.566
relative viability ([3]; first compound 0.02 µM): 0.763
relative viability ([3]; first compound 0.06325 µM): 0.628
relative viability ([3]; first compound 0.2 µM): 0.739

NCI-H1793
relative viability ([1]; first compound 0.04 µM): 0.366
relative viability ([1]; first compound 0.1265 µM): 0.273
relative viability ([1]; first compound 0.4 µM): 0.17
relative viability ([1]; first compound 1.265 µM): 0.246
relative viability ([1]; first compound 4 µM): 0.159
relative viability ([2]; first compound 0.04 µM): 1.02
relative viability ([2]; first compound 0.1265 µM): 0.852
relative viability ([2]; first compound 0.4 µM): 0.505
relative viability ([2]; first compound 1.265 µM): 0.797
relative viability ([2]; first compound 4 µM): 0.582
relative viability ([4]; first compound 0.002 µM): 0.306
relative viability ([4]; first compound 0.006325 µM): 0.291
relative viability ([4]; first compound 0.02 µM): 0.326
relative viability ([4]; first compound 0.06325 µM): 0.278
relative viability ([4]; first compound 0.2 µM): 0.295

NCI-H2170
relative viability ([1]; first compound 0.04 µM): 0.722
relative viability ([1]; first compound 0.1265 µM): 0.793
relative viability ([1]; first compound 0.4 µM): 0.637
relative viability ([1]; first compound 1.265 µM): 0.609
relative viability ([1]; first compound 4 µM): 0.649
relative viability ([4]; first compound 0.002 µM): 0.371
relative viability ([4]; first compound 0.006325 µM): 0.396
relative viability ([4]; first compound 0.02 µM): 0.435
relative viability ([4]; first compound 0.06325 µM): 0.416
relative viability ([4]; first compound 0.2 µM): 0.378
relative viability ([3]; first compound 0.002 µM): 1.3
relative viability ([3]; first compound 0.006325 µM): 1.03
relative viability ([3]; first compound 0.02 µM): 1.1
relative viability ([3]; first compound 0.06325 µM): 1.2
relative viability ([3]; first compound 0.2 µM): 1.09

NCI-H2342
relative viability ([1]; first compound 0.04 µM): 0.587
relative viability ([1]; first compound 0.1265 µM): 0.613
relative viability ([1]; first compound 0.4 µM): 0.582
relative viability ([1]; first compound 1.265 µM): 0.641
relative viability ([1]; first compound 4 µM): 0.618
relative viability ([4]; first compound 0.002 µM): 0.494
relative viability ([4]; first compound 0.006325 µM): 0.505
relative viability ([4]; first compound 0.02 µM): 0.57
relative viability ([4]; first compound 0.06325 µM): 0.514
relative viability ([4]; first compound 0.2 µM): 0.521

SW 900
relative viability ([1]; first compound 0.04 µM): 0.553
relative viability ([1]; first compound 0.1265 µM): 0.642
relative viability ([1]; first compound 0.4 µM): 0.376
relative viability ([1]; first compound 1.265 µM): 0.744
relative viability ([1]; first compound 4 µM): 0.373
relative viability ([4]; first compound 0.002 µM): 0.549
relative viability ([4]; first compound 0.006325 µM): 0.564
relative viability ([4]; first compound 0.02 µM): 0.604
relative viability ([4]; first compound 0.06325 µM): 0.516
relative viability ([4]; first compound 0.2 µM): 0.521
